US11339171B2, “MDM2 inhibitors” (Gan & Lee Pharmaceuticals, priority 2017, dated 2022)

These molecules were tested against T1, MDM2 (Homo sapiens, UniProt Q00987) (assay: Inhibition test of MDM2-P53 (GST-MDM2, Biotin-P53, Anti-GST-Tb, SA-XL665)). Details: not given.
T1 construct: made in house
Assay type: binding
Protocol: Experimental purpose: To determine the inhibitory activities of the compounds of the present invention on MDM2.
The present experiment uses the following assay methods/instruments/reagents:
Buffer: 1×PBS+0.1% BSA+5 mM DTT; MDM2 Buffer: Buffer+1 mM AEBSF
GST-MDM2: The final concentration is 4 nM, and it is required to formulate a 20 nM (5×) solution. A mother liquor is diluted by 3500 folds, wherein the mother liquor is 10-fold diluted first, and then 350-fold diluted.
Anti-GST-Tb: The final concentration is 2×, and a mother liquor is diluted by 50 folds.
MIX: GST-MDM2, Biotin-P53, SA-XL665 and Anti-GST-Tb were mixed according to a ratio of 4:4:5:5.
Sample: Preparation of a sample (10 mM in DMSO) solution: a. 3 μL sample+7 μL DMSO+20 μL DMSO were formulated to give an initial concentration of 1 mM and mixed well; b. in plate 1, twelve 5-fold serial dilutions (sequentially prepared by adding 10 μL of the last sample to 40 μL DMSO) were prepared and mixed well, individually; c. plate 2 was taken, 45 μL of Buffer was added to each well, and 5 μL of dilution at each concentration was taken from plate 1 and added to the corresponding well in plate 2 (the concentration in well 1 was 100 μM), and mixed well.
1. 18 μL of MIX was added to a 384-well plate, and centrifugation was performed at 4500 rpm for 5 min.
2. 2 μL of sample was added correspondingly to each well, the resultant was centrifuged at 25° C. and 4500 rpm for 5 min, and shaked at 25° C. for 90 min on a shaker.
Readings were obtained from the Microplate reader, and data was processed by Graphpad Prism 6.0.

T1 sequence (Q00987 whole entry): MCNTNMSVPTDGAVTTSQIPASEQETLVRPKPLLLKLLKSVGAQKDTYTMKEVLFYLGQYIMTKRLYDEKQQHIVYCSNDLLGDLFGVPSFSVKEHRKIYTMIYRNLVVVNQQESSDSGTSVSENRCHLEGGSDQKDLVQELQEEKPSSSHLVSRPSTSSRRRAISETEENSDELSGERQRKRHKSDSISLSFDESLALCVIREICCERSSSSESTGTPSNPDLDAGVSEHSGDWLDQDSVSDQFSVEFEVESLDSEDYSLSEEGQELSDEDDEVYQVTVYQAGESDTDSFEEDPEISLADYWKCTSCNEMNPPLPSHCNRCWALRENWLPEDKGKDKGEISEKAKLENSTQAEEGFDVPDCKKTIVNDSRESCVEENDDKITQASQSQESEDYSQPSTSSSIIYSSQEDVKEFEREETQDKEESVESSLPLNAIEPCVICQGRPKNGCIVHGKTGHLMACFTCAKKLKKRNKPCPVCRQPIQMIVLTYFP

Compound | IC50
COc1ncc(-c2nc3c(n2C(C)C)C2(C(=O)Nc4cc(Cl)ccc42)N(c2cc(Cl)ccc2C(C)C)C3=O)c(OC)n1 (centres unmarked) [Example 156, 6-chloro-5′-(5-chloro-2-isopropylphenyl)-2′-(2,4-dimethoxypyrimidin-5-yl)-3′-isopropyl-3′H-spiro[dihydroindole-3,4′-pyrrolo[3,4-d]imidazole]-2,6′(5′H)-dione] | 11.2 nM
CCc1ccccc1-c1nc2c(n1C(C)C)[C@]1(C(=O)Nc3cc(Cl)ccc31)N(c1cc(Cl)ccc1C)C2=O [Example R-7, (R)-6-chloro-5′-(5-chloro-2-methylphenyl)-2′-(2-ethylphenyl)-3′-isopropylisopropyl-3′H-spiro[dihydroindole-3,4′-pyrrolo[3,4-d]imidazole]-2,6′(5′H)-dione] | 36000 nM
COc1ncncc1-c1nc2c(n1C(C)C)[C@]1(C(=O)Nc3cc(Cl)ccc31)N(c1cc(Cl)ccc1C)C2=O [Example R-27, (R)-6-chloro-5′-(5-chloro-2-methylphenyl)-3′-isopropyl-2′-(4-methoxypyrimidin-5-yl)-3′H-spiro[dihydroindole-3,4′-pyrrolo[3,4-d]imidazole]-2,6′(5′H)-dione] | 924 nM
COc1ncc(-c2nc3c(n2C2CC2)[C@]2(C(=O)Nc4cc(Cl)ccc42)N(c2cc(Cl)ccc2C)C3=O)c(OC)n1 [Example R-28, (R)-6-chloro-5′-(5-chloro-2-methylphenyl)-3′-cyclopropane-2′-(2,4-dimethoxypyrimidin-5-yl)-3′H-spiro[dihydroindole-3,4′-pyrrolo[3,4-d]imidazole]-2,6′(5′H)-dione] | 3110 nM
CCc1ccc(OC)c(-c2nc3c(n2C(C)C)[C@]2(C(=O)Nc4cc(Cl)ccc42)N(c2cc(Cl)ccc2C)C3=O)c1 [Example R-37, (R)-6-chloro-5′-(5-chloro-2-methylphenyl)-2′-(5-ethyl-2-methoxyphenyl)-3′-isopropyl-3′H-spiro[dihydroindole-3,4′-pyrrolo[3,4-d]imidazole]-2,6′(5′H)-dione] | 3110 nM
CCc1ccc(OC)c(-c2nc3c(n2C(C)C)[C@]2(C(=O)Nc4cc(Cl)ccc42)N(c2cccc(Cl)c2)C3=O)c1 [Example R-38, (R)-6-chloro-5′-(3-chlorophenyl)-2′-(5-ethyl-2-methoxyphenyl)-3′-isopropyl-3′H-spiro[dihydroindole-3,4′-pyrrolo[3,4-d]imidazole]-2,6′(5′H)-dione] | 1120 nM
COc1ccc(-c2nc3c(n2C(C)C)[C@]2(C(=O)Nc4cc(Cl)ccc42)N(c2cc(Cl)cn(C)c2=O)C3=O)c(OC)c1 [Example R-39, (R)-6-chloro-5′-(5-chloro-1-methyl-2-oxo-1,2-dihydropyridin-3-yl)-2′-(2,4-dimethoxyphenyl)-3′-isopropyl-3′H-spiro[dihydroindole-3,4′-pyrrolo[3,4-d]imidazole]-2,6′(5′H)-dione] | 1850 nM
COc1ncc(-c2nc3c(n2C2CCC2)[C@]2(C(=O)Nc4cc(Cl)ccc42)N(c2cc(Cl)ccc2C)C3=O)c(OC)n1 [Example R-41, (R)-6-chloro-5′-(5-chloro-2-methylphenyl)-3′-cyclobutyl-2′-(2,4-dimethoxypyrimidin-5-yl)-3′H-spiro[dihydroindole-3,4′-pyrrolo[3,4-d]imidazole]-2,6′(5′H)-dione] | 7320 nM
COc1ccccc1-c1nc2c(n1C(C)C)[C@]1(C(=O)Nc3cc(Cl)ccc31)N(c1cc(Cl)cn(C)c1=O)C2=O [Example R-43, (R)-6-chloro-5′-(5-chloro-1-methyl-2-oxo-1,2-dihydropyridin-3-yl)-3′-isopropyl-2′-(2-methoxyphenyl)-3′H-spiro[dihydroindole-3,4′-pyrrolo[3,4-d]imidazole]-2,6′(5′H)-dione] | 130 nM
CNC(=O)c1ccc(-c2nc3c(n2C(C)C)[C@]2(C(=O)Nc4cc(Cl)ccc42)N(c2cc(Cl)ccc2C)C3=O)c(OC)c1 [Example R-54, (R)-4-(6-chloro-5′-(5-chloro-2-methylphenyl)-3′-isopropyl-2,6′-dioxo-5′,6′-dihydro-3′H-spiro[dihydroindole-3,4′-pyrrolo[3,4-d]imidazole]-2′-yl)-3-methoxy-N-methylbenzamide] | 1960 nM
COc1ncc(-c2nc3c(n2C(C)C)[C@]2(C(=O)Nc4cc(Cl)ccc42)N(c2ccc(C(N)=O)c(Cl)c2)C3=O)c(OC)n1 [Example R-60, (R)-2-chloro-4-(6-chloro-2′-(2,4-dimethoxypyrimidin-5-yl)-3′-isopropyl-2,6′-dioxo-3′,6′-dihydro-5′H-spiro[dihydroindole-3,4′-pyrrolo[3,4-d]imidazole]-5′-yl)benzamide] | 1070 nM
COc1ccc(N2C(=O)c3nc(-c4ccccc4OC)n(C(C)C)c3[C@]23C(=O)Nc2cc(Cl)ccc23)cc1Cl [Example R-63, (R)-6-chloro-5′-(3-chloro-4-methoxyphenyl)-3′-isopropyl-2′-(2-methoxyphenyl)-3′H-spiro[dihydroindole-3,4′-pyrrolo[3,4-d]imidazole]-2,6′(5′H)-dione] | 537 nM

Same assay, conditions: labels are Example numbers; the compounds with S-configuration are meant

Compound | inhibitory effect on MDM2 compared with positive control compound HDM201
COc1cc(C(F)(F)F)ncc1-c1nc2c(n1C(C)C)C1(C(=O)Nc3cc(Cl)ccc31)N(c1cc(Cl)cnc1C)C2=O (centres unmarked) [Example 152, 6-chloro-5′-(5-chloro-2-methylpyridin-3-yl)-3′-isopropyl-2′-(4-methoxy-6-(trifluoromethyl)pyridine-3-yl)-3′H-spiro[dihydroindole-3,4′-pyrrolo[3,4-d]imidazole]-2,6′(5′H)-dione] | better
COc1cc(OCCF)ncc1-c1nc2c(n1C(C)C)C1(C(=O)Nc3cc(Cl)ccc31)N(c1cc(Cl)ccc1C)C2=O (centres unmarked) [Example 163, 6-chloro-5′-(5-chloro-2-methylphenyl)-2′-(6-(2-fluoroethoxy)-4-methoxypyridin-3-yl)-3′-isopropyl-3′H-spiro[dihydroindole-3,4′-pyrrolo[3,4-d]imidazole]-2,6′(5′H)-dione] | better
COc1nc(OCCF)ncc1-c1nc2c(n1C(C)C)C1(C(=O)Nc3cc(Cl)ccc31)N(c1cc(Cl)cnc1C)C2=O (centres unmarked) [Example 170, 6-chloro-5′-(5-chloro-2-methylpyridin-3-yl)-2′-(2-(2-fluoroethoxy)-4-methoxypyrimidin-5-yl)-3′-isopropyl-3′H-spiro[dihydroindole-3,4′-pyrrolo[3,4-d]imidazole]-2,6′(5′H)-dione] | better
COc1cc(OCCF)ncc1-c1nc2c(n1C(C)C)C1(C(=O)Nc3cc(Cl)ccc31)N(c1cc(Cl)cnc1C)C2=O (centres unmarked) [Example 173, 6-chloro-5′-(5-chloro-2-methylpyridin-3-yl)-2′-(6-(2-fluoroethoxy)-4-methoxypyridin-3-yl)-3′-isopropyl-3′H-spiro[dihydroindole-3,4′-pyrrolo[3,4-d]imidazole]-2,6′(5′H)-dione] | better
COc1cc(OC)c(-c2nc3c(n2C(C)C)C2(C(=O)Nc4cc(Cl)ccc42)N(c2cc(F)cc(Cl)c2)C3=O)cn1 (centres unmarked) [Example 175, 6-chloro-5′-(3-chloro-5-fluorophenyl)-2′-(4,6-dimethoxypyridin-3-yl)-3′-isopropyl-3′H-spiro[dihydroindole-3,4′-pyrrolo[3,4-d]imidazole]-2,6′(5′H)-dione] | better
